Measured values from patent publication US20070020190A1, “Medicament comprising a highly potent long-lasting beta2-agonist in combination with other active ingredients” (priority 2003, published 2007).
Counter-ions that a name gives are not always drawn.

Columns and labels:
[1] = system: isolated guinea pig tracheal strips; assay: Carbachol-induced contraction in isolated guinea pig tracheal strips
Description: The pharmacological interaction between the β2-adrenoceptor agonist TA 2005 and the M3-receptor antagonist tiotropium bromide was investigated in isolated guinea pig tracheal strips contracted with carbachol.

[2] = system: acetylcholine-induced bronchoconstriction in guinea-pigs; assay: Acetylcholine-induced bronchoconstriction in guinea pigs (Konzett and Rossler); format: in vivo, guinea pig; details: for ED50, acetylcholine-induced bronchoconstriction: acetylcholine 20 μg/kg iv, superfused onto tracheal mucosa
Description: Guinea pigs were prepared as originally described by Konzett and Rossler, Naunyn-Schmiedeberg's Arch Pharmacol, 1940; 195: 556-557.
Bronchoconstriction was induced by intravenous administration of acetylcholine (20 μg/kg). The antibronchospastic activity of different concentrations of tiotropium (0.1 to 30 pmol) or TA 2005 (0.3 to 100 pmol), alone or in combination, was investigated.

[3] = system: isolated tracheal strips from ovalbumin-sensitised guinea pigs; assay: β2-desensitisation in isolated tracheal strips from ovalbumin-sensitised guinea pigs (carbachol-induced contraction); set-up: species or system guinea pig
Description: A prolonged use of β2-agonists results in down-regulation of pulmonary β2-adenoceptors. This phenomenon can be counteracted by concomitant treatment with a corticosteroid.
In the present study tracheal strips obtained from ovalbumin-sensitised guinea-pigs (100 mg/kg ip and 100 mg/kg sc, 20 days before sacrifice) were submitted to β2-desensitisation by contact for two 20-min periods with a supra-maximal concentration of salbutamol (5*10^−6 M). In some experiments guinea pigs 24 and 1.5 h before sacrifice received 50 mg/kg ip of budesonide.

[4] = system: asthmatic patients; assay: Preliminary clinical trial of bronchodilator efficacy (FEV1 by spirometry) in asthmatic patients; format: in vivo; details: single dose of 1 μg, inhalation
Description: The bronchodilator efficacy of TA 2005, defined as increase from baseline in the forced expiratory volume over one second (FEV1), measured by spirometry, has been assessed in a preliminary clinical trial in a small group of asthmatic patients.
The results have shown that already following administration of a single dose of 1 μg a mean and persistent increase of FEV1 approximately 30% greater than baseline can be obtained.

[5] = system: rat lung oedema induced by Sephadex; assay: Sephadex-induced lung oedema model; format: in vivo; details: intratracheal; for non effective dose on Sephadex-induced lung oedema: from dose-response curves
Description: The rat lung oedema induced by Sephadex is a model which leads to inflammatory cells infiltration and long-lasting interstitial oedema. […] The test substances were suspended in saline and administered intratracheally suitably diluted in the Sephadex suspension. 24 h post-administration, the animals were sacrificed and the lungs removed and weighted. Percent inhibition of the Sephadex-induced oedema was then determined.

[6] = system: healthy male volunteers; details: single inhaled doses 0.8-12.8 μg, cited from earlier work
[7] = system: bronchoconstriction induced by acetaldehyde in the guinea pig; assay: Acetaldehyde-induced bronchoconstriction, histamine release and plasma extravasation in anaesthetized ventilated guinea pigs; format: in vivo
Description: Pharmacol., 362:184-189, 2000; as well as in a model of acetaldehyde induced bronchoconstriction (Berti et al., Arzneim-Forsch/Drug Res 1994; 44: 323-326).
The protective activity of TA 2005 (0.1 to 10 pmol), formoterol (0.3 to 30 pmol) or budesonide (31.25 to 500 nmol) was determined after intratracheal superfusion alone or in combination.

C[N+]1(C)[C@@H]2C[C@@H](OC(=O)C(O)(c3cccs3)c3cccs3)C[C@H]1[C@@H]1O[C@@H]12 [tiotropium bromide]
inhibition of carbachol-induced contraction ([1]; tiotropium bromide 3*10^−10 M): 17.1±2.2%
potency relative to TA 2005 ([2]; P<0.001): 5.2 fold
ED50, acetylcholine-induced bronchoconstriction [2]: 3.2 pmol
effect on acetylcholine-induced bronchoconstriction ([2]; tiotropium 0.1-30 pmol, TA 2005 0.3-100 pmol, alone): dose-dependently antagonize

COc1ccc(CC(C)NCC(O)c2ccc(O)c3[nH]c(=O)ccc23)cc1 [TA 2005, 8-Hydroxy-5-[(1R)-1-hydroxy-2-[[(1R)-2-(4-methoxyphenyl)-1-methylethyl]amino]ethyl-2(1H)-quinolinone hydrochloride salt]
loss of potency in relaxing the carbachol-induced contraction ([3]; after β2-desensitisation with salbutamol 5*10^−6 M): about 3 times
potentiation of relaxing effects ([3]; after β2-desensitisation, budesonide pretreatment 50 mg/kg ip 24 and 1.5 h before sacrifice): about 6 times
mean and persistent increase of FEV1 greater than baseline [4]: approximately 30%
non effective dose on Sephadex-induced lung oedema [5]: 0.01 nmol/kg
inhibition at 1 pM ([1]; Cavia porcellus, TA 2005 10^−12 M): 29.3 ± 6.1%
maximum no adverse effect dose ([6]; metered dose nebuliser system): 9.6 µg
effect on heart rate, tremor, pulmonary function and plasma potassium [6]: dose-dependent increase in heart rate, tremor and pulmonary function and a decrease in plasma potassium
inhibition of the effect of acetylcholine ([2]; 3 pmol of TA 2005 in the absence of tiotropium): 18%
ED50, acetylcholine-induced bronchoconstriction [2]: 16.7 pmol

CCCC1O[C@@H]2C[C@H]3[C@@H]4CCC5=CC(=O)C=C[C@]5(C)[C@H]4[C@@H](O)C[C@]3(C)[C@]2(C(=O)CO)O1 (stereo partly shown) [budesonide]
dose of budesonide needed to significantly inhibit Sephadex-induced lung oedema ([5]; budesonide alone (absence of TA 2005)): 240 nmol/kg
dose of budesonide significantly inhibiting Sephadex-induced lung oedema ([5]; in the presence of TA 2005 (0.01 nmol/kg)): 15 nmol/kg
dose of budesonide giving significant reduction in Sephadex-induced lung weight increase ([5]; in the presence of formoterol (0.1 nmol/kg)): 120 nmol/kg
ED50, bronchoconstriction ([7]; budesonide alone, intratracheal superfusion): 396 nmol
fold reduction of budesonide ED50, bronchoconstriction ([7]; combined with 0.1 pmol of TA 2005): 5.3 fold
fold reduction of budesonide ED50, bronchoconstriction ([7]; combined with 0.3 pmol of TA 2005): 14.3 fold
fold reduction of budesonide ED50, bronchoconstriction ([7]; combined with 0.3 pmol of formoterol): 3.0 fold
fold reduction of budesonide ED50, bronchoconstriction ([7]; combined with 1 pmol of formoterol): 5.9 fold

COc1ccc(CC(C)NCC(O)c2ccc(O)c(NC=O)c2)cc1 (stereo not shown) [formoterol]
effect on Sephadex-induced lung oedema ([5]; 24 h post-administration, TA 2005 0.001-0.1, formoterol 0.01-2, budesonide 15-480 nmol/kg): dose-dependent remission
non effective dose on Sephadex-induced lung oedema [5]: 0.1 nmol/kg
decline of anti-bronchoconstrictive effect after 240 min ([7]; 30 pmol, intratracheal superfusion): ~50%
effect on AcCHO effects (bronchoconstriction, histamine release, plasma extravasation) ([7]; intratracheal superfusion, TA 2005 0.1-10 pmol, formoterol 0.3-30 pmol, budesonide 31.25-500 nmol): potently antagonised
